Results from ChEMBL document CHEMBL1201862, “PubChem BioAssay data set” (2004).
The source made the active and inactive calls.

What was measured:
[1] = target: T1, Sentrin-specific protease 6 (Homo sapiens, UniProt Q9GZR1); assay type: functional;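 note: Luminescence-based dose-response confirmatory assay of SENP6 inhibition, following up an ultra-high-throughput screen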
T1 sequence (Q9GZR1 whole entry): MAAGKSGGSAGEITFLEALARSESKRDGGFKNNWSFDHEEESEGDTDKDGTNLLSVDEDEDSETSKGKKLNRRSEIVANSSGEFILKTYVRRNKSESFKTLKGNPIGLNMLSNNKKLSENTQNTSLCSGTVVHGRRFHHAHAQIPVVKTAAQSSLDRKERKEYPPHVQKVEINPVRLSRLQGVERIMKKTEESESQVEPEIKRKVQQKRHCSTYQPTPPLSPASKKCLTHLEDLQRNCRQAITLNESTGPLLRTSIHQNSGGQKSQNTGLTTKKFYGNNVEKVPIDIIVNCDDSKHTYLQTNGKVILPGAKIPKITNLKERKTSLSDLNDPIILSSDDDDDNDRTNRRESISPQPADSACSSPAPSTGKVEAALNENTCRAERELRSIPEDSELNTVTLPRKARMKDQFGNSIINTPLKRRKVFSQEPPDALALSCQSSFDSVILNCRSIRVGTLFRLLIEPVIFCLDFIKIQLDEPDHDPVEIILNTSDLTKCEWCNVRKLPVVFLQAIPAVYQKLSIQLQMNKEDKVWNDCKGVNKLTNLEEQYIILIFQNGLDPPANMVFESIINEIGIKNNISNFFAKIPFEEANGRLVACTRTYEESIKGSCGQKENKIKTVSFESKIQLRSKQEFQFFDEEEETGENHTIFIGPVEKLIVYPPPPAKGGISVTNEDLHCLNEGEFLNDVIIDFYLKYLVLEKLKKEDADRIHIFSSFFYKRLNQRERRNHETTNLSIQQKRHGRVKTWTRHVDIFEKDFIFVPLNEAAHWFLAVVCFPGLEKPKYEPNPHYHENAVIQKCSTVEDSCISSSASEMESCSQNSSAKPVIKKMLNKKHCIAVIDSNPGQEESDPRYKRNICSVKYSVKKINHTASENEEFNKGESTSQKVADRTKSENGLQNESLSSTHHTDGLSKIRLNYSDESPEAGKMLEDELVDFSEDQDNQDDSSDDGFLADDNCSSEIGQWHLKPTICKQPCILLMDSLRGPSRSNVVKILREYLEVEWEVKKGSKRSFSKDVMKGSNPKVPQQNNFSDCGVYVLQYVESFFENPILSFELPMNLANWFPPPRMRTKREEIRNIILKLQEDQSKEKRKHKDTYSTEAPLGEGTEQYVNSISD

[2] = target: T2, Sentrin-specific protease 8 (Homo sapiens, UniProt Q96LD8); assay type: functional;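 note: luminescence read-out of SENP8 inhibition, dose-response confirmation following an ultra-high-throughput screen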
T2 sequence (Q96LD8 whole entry): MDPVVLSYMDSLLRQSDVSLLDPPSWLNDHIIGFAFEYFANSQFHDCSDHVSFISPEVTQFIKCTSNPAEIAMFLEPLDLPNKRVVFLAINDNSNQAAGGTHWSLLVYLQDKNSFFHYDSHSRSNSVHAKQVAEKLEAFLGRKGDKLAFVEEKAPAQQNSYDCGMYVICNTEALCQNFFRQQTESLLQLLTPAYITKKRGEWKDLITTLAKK

Caspase-3 [3] = target: T3, Caspase-3 (Homo sapiens, UniProt P42574); assay type: functional;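 note: Dose-response selectivity test against caspase-3 for candidate inhibitors of sentrin-specific proteases (SENPs)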
T3 sequence (P42574 whole entry): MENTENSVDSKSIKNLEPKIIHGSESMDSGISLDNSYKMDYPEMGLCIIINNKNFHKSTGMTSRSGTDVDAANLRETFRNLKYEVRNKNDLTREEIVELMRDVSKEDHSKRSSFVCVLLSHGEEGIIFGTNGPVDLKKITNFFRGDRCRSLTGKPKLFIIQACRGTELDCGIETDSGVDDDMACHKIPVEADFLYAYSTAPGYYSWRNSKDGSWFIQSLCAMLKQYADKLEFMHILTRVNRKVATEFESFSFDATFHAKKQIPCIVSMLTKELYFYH

[4] = target: T4, Corticotropin-releasing factor receptor 2/Corticotropin-releasing factor-binding protein (Homo sapiens, UniProt P24387+Q13324); test: activators of CRF receptor 2 with binding protein – uHTS hits, confirmation (AID 602473); assay type: functional; settings: read-out: EC50_Mean
T4 sequence (Q13324 whole entry): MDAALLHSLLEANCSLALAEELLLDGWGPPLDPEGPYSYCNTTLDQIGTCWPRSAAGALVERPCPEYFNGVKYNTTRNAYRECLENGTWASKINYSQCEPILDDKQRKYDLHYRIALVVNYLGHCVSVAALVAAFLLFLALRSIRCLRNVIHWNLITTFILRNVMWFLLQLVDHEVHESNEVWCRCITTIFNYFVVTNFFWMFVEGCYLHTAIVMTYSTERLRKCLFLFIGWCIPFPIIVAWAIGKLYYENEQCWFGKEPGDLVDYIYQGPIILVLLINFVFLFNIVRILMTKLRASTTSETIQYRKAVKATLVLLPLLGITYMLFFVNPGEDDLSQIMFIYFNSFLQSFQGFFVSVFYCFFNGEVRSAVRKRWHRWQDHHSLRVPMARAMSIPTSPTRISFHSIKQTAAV
T4 sequence (P24387 whole entry): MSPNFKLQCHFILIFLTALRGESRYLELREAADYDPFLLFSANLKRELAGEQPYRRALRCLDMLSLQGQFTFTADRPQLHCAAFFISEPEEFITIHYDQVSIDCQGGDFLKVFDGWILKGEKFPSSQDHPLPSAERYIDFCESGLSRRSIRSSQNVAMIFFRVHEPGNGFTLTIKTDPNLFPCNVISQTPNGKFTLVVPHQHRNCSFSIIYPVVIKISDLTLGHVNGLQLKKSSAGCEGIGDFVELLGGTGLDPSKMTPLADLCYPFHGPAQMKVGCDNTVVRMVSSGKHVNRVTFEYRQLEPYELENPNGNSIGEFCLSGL

[5] = NIH-3T3 fibroblast cytotoxicity, dose response, cytotoxicity control, cell-based, fluorescence, Alamar Blue, secondary assay (AID 2327); assay type: functional;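 note: NIH-3T3 mouse fibroblasts cultured with fluconazole at 8 µg/mL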
[6] = target: T4, Corticotropin-releasing factor receptor 2/Corticotropin-releasing factor-binding protein; test: Dose Response confirmation of uHTS hits for small molecule antagonists of the CRF-binding protein and CRF-R2 receptor complex.; assay type: functional; settings: read-out: IC50_Mean
[7] = target: ATP-dependent molecular chaperone HSP82 (Candida albicans (strain WO-1) (Yeast), UniProt C4YTQ8); test: steroid-induced GRE reporter decrease in yeast – S. cerevisiae, luminescence, Hsp90 inhibitor project, dose response (AID 2400); assay type: functional, cell-based;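 note: beta-galactosidase luminescence from glucocorticoid response element reporter as proxy for Hsp90 function; inhibitor potency where signal loss means Hsp90 inhibition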
[8] = target: T5, Serine/threonine-protein phosphatase (Candida dubliniensis (strain CD36 / CBS 7987 / NCPF 3949 / NRRLY-17841) (Yeast), UniProt B9W6M3); test: blockers of CaCl2-induced CDRE-lacZ signaling – S. cerevisiae, luminescence, secondary, dose response (AID 2388); assay type: functional, cell-based;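 note: yeast reporter cells carrying a calcineurin-responsive lacZ construct stimulated with calcium chloride; luminescent beta-galactosidase reporter signal in whole cells rather than isolated phosphatase activity; potency for inhibition where a drop in reporter signal means calcineurin blockade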
T5 sequence (B9W6M3 whole entry): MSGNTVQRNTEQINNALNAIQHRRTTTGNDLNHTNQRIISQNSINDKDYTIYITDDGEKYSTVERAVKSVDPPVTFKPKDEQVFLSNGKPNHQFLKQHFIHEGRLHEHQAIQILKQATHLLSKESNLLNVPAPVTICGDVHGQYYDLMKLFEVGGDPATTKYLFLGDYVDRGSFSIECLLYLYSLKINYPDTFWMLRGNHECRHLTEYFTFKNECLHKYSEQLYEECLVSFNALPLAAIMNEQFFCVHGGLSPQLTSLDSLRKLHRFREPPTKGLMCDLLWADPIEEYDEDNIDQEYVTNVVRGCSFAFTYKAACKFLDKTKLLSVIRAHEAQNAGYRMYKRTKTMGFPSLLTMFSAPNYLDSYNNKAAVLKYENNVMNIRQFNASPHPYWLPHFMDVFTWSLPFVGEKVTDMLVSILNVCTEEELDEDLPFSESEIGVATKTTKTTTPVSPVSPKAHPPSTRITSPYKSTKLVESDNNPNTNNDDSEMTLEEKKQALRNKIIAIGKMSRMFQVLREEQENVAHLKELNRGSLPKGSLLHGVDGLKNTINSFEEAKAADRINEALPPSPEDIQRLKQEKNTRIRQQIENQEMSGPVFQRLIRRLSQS

[9] = fluconazole-exposed Candida albicans growth modulators – fluorescence, retest, confirmation (AID 2467); assay type: functional, cell-based
[10] = target: T6, Sentrin-specific protease 7 (Homo sapiens, UniProt Q9BQF6); test: inhibition of human SENP7 cleavage activity – biochemical, luminescence, set 2, SAR follow-up (AID 588600); assay type: functional
T6 sequence (Q9BQF6 whole entry): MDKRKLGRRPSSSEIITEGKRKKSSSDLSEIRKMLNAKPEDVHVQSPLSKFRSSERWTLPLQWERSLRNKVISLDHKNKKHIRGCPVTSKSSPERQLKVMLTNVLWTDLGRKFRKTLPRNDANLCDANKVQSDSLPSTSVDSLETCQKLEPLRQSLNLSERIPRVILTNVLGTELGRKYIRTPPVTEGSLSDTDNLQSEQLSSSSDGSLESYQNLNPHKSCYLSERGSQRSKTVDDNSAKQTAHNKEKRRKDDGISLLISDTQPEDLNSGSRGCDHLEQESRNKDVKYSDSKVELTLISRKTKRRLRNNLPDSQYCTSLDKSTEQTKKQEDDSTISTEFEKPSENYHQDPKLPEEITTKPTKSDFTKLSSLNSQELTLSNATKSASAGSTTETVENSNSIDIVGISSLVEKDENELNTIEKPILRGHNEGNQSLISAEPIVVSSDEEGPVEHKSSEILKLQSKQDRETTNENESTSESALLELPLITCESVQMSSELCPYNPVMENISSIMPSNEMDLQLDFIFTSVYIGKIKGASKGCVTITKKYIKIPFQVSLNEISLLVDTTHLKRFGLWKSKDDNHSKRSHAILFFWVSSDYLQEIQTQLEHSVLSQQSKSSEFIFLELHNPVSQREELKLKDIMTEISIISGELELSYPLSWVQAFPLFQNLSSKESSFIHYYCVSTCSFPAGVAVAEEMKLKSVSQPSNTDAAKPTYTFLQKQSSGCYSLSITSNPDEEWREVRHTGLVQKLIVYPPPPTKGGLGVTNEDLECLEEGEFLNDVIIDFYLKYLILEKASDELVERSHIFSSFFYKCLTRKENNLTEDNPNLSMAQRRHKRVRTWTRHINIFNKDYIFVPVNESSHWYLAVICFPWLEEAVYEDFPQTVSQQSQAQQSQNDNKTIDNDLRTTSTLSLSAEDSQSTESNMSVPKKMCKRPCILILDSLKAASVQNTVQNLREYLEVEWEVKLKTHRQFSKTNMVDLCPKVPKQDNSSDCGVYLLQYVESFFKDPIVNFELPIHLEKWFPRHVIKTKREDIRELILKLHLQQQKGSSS

Caspase-3 [11] = target: T3, Caspase-3; test: inhibition of recombinant caspase-3 activity – biochemical, luminescence, set 2, selectivity assay for SENP protease inhibitor project, SAR follow-up (AID 588599); assay type: functional
cells [12] = assay type: functional, cell-based
[13] = target: T2, Sentrin-specific protease 8; test: inhibition of sentrin protease 8 – biochemical, luminescence, set 2, SAR follow-up (AID 588601); assay type: functional
cells [14] = assay type: functional, cell-based; remark: listed apart in the source
[15] = target: T1, Sentrin-specific protease 6; test: inhibition of human SENP6 catalytic domain – biochemical, luminescence, set 2, SAR follow-up (AID 588598); assay type: functional
[16] = target: Peroxisome proliferator-activated receptor gamma/Nuclear receptor coactivator 2 (Homo sapiens, UniProt P37231); test: TR-FRET dose response biochemical High Throughput Screening assay for agonists of the steroid receptor coactivator 2 (SRC-2) recruitment by the peroxisome proliferator-activated receptor gamma (PPAR gamma): non-selective agonists. [Related pubchem assays: 1297, 1032 ]; assay type: functional
[17] = target: Peroxisome proliferator-activated receptor gamma/Nuclear receptor coactivator 3 (Homo sapiens, UniProt P37231); test: TR-FRET dose response biochemical High Throughput Screening assay for agonists of the steroid receptor coactivator 3 (SRC-3) recruitment by the peroxisome proliferator-activated receptor gamma (PPAR gamma): non-selective agonists. [Related pubchem assays: 1301 (Confirmation screen.), 1048 (Primary screen.)]; assay type: functional
[18] = target: Peroxisome proliferator-activated receptor gamma/Nuclear receptor coactivator 1 (Homo sapiens, UniProt P37231); test: TR-FRET dose response biochemical High Throughput Screening assay for agonists of the steroid receptor coactivator 1 (SRC-1) recruitment by the peroxisome proliferator-activated receptor gamma (PPAR gamma): non-selective agonists. [Related pubchem assays (depositor defined):AID1300, AID1808, AID504735, AID631]; assay type: protein assay
Protein Wnt-3a = Protein Wnt-3a (Mus musculus, UniProt P27467); test: antagonism of Wnt3a pathway luciferase reporter – Wnt-LIGHT cells, luminescence, selectivity assay for Gli-SUFU antagonist project, dose response (AID 651570); assay type: functional; settings: read-out: IC50_Mean;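 note: Wnt-LIGHT reporter cells stimulated with conditioned medium from Wnt3a-producing cells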
Melanocortin receptor 4 = Melanocortin receptor 4 (Homo sapiens, UniProt P32245); assay type: functional, cell-based;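 note: Cell-based assay with luminescence read-out, confirmatory dose-response testing for agonist activity of biased ligands at MC4R; human U2OS cells with tagged receptor and beta-arrestin; potency of agonists that increase receptor coupling to beta-arrestin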
H9c2 = test: cells; assay type: functional, cell-based; settings: Rattus norvegicus, H9c2, Myocardium

Sequence of Protein Wnt-3a (P27467 whole entry): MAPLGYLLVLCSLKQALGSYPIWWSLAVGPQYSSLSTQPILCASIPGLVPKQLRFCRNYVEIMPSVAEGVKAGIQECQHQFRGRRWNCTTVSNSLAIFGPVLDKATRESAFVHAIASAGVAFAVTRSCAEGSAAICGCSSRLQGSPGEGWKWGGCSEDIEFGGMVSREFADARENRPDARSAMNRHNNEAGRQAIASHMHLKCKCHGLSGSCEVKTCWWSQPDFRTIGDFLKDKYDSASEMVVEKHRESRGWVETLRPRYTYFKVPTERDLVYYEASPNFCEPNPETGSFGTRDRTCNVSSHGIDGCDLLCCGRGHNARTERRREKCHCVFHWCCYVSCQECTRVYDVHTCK
Sequence of Peroxisome proliferator-activated receptor gamma/Nuclear receptor coactivator 2 (P37231 whole entry): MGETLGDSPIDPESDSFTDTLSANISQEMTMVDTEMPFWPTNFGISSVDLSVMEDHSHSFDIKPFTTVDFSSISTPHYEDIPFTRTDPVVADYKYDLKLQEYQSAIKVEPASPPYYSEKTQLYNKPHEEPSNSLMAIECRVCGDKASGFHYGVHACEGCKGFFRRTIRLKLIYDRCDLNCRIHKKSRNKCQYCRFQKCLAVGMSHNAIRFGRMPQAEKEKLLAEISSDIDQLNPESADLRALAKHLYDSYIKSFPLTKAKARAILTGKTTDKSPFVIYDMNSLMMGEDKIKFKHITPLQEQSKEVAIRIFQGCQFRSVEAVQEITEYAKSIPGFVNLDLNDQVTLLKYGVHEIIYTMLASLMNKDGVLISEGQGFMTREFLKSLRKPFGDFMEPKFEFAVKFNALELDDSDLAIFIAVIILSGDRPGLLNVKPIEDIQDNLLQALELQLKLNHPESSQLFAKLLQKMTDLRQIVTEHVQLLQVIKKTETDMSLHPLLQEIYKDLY
Sequence of Peroxisome proliferator-activated receptor gamma/Nuclear receptor coactivator 2 (Q15596 whole entry, further chain): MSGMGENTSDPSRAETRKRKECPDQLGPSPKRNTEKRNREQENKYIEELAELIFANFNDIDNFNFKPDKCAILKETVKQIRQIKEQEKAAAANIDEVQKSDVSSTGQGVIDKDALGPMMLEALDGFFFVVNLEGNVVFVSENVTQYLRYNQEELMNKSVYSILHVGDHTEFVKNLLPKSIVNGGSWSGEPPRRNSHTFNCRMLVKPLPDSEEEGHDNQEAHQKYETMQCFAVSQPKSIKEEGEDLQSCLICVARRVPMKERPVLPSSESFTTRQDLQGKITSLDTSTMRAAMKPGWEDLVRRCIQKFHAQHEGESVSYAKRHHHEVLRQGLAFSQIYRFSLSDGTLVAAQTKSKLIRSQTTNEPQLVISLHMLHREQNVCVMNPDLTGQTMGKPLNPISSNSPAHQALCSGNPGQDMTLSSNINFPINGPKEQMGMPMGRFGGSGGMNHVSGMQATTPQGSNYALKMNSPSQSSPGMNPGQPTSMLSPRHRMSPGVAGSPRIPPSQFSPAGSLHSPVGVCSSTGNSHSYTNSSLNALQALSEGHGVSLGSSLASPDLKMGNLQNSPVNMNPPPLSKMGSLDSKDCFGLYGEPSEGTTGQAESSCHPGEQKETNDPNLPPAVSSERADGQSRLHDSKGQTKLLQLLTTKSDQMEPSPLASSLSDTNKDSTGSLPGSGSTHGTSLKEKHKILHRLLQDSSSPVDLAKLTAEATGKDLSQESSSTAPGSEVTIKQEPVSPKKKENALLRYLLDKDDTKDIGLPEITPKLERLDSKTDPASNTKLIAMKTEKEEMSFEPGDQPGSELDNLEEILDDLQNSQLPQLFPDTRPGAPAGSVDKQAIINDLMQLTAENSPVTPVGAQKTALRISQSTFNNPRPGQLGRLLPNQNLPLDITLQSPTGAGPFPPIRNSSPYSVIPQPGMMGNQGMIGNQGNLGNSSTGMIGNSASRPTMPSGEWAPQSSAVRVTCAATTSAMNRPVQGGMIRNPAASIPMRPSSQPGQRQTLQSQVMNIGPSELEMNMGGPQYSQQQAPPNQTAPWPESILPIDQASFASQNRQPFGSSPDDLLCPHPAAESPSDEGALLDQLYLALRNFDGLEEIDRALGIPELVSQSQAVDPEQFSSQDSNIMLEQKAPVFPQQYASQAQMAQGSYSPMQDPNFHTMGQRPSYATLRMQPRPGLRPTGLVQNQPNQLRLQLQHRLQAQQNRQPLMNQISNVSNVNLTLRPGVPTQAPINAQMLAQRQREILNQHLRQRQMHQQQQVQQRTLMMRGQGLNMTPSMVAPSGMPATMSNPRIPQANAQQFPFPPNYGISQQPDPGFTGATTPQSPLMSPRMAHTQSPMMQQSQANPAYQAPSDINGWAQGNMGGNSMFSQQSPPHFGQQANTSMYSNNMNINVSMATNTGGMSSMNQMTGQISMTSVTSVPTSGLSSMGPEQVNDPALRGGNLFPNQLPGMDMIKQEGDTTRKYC
Sequence of Peroxisome proliferator-activated receptor gamma/Nuclear receptor coactivator 1 (P37231 whole entry): as the sequence (P37231 whole entry) above
Sequence of Peroxisome proliferator-activated receptor gamma/Nuclear receptor coactivator 1 (Q15788 whole entry, further chain): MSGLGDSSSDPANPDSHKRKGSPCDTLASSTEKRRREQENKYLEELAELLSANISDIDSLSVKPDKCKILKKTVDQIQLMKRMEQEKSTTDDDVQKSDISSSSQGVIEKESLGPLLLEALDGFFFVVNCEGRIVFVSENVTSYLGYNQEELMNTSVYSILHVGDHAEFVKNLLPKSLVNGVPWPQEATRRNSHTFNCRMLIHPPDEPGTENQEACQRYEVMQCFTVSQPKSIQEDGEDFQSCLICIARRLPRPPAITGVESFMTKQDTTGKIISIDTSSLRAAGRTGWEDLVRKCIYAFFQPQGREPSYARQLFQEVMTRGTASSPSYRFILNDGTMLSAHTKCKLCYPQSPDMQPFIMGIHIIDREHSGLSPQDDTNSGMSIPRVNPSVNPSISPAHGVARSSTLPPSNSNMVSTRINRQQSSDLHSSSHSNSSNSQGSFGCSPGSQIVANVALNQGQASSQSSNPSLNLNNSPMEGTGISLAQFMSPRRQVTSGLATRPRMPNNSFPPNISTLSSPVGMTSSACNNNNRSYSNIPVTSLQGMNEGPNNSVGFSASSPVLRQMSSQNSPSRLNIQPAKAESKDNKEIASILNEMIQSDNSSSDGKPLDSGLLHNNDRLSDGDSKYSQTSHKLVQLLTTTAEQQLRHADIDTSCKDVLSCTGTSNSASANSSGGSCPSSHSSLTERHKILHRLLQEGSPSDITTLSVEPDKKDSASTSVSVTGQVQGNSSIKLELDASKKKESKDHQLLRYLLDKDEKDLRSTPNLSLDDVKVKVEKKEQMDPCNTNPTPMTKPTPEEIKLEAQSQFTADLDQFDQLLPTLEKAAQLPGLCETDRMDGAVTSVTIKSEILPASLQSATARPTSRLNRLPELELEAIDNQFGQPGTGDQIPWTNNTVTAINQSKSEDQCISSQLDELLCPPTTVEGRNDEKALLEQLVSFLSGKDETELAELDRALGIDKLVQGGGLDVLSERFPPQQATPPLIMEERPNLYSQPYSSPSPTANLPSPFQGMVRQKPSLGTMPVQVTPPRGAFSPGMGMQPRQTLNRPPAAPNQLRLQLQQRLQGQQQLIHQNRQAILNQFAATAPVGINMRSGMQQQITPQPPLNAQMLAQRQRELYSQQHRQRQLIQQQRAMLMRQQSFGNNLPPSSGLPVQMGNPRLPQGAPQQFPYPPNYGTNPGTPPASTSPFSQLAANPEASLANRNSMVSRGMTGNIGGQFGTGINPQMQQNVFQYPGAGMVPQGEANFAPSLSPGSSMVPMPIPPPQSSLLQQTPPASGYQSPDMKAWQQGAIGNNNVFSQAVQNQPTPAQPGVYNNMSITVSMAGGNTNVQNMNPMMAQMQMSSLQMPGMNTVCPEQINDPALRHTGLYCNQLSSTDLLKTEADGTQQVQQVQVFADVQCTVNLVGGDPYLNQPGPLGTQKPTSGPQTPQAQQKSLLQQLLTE
Sequence of ATP-dependent molecular chaperone HSP82 (C4YTQ8 whole entry): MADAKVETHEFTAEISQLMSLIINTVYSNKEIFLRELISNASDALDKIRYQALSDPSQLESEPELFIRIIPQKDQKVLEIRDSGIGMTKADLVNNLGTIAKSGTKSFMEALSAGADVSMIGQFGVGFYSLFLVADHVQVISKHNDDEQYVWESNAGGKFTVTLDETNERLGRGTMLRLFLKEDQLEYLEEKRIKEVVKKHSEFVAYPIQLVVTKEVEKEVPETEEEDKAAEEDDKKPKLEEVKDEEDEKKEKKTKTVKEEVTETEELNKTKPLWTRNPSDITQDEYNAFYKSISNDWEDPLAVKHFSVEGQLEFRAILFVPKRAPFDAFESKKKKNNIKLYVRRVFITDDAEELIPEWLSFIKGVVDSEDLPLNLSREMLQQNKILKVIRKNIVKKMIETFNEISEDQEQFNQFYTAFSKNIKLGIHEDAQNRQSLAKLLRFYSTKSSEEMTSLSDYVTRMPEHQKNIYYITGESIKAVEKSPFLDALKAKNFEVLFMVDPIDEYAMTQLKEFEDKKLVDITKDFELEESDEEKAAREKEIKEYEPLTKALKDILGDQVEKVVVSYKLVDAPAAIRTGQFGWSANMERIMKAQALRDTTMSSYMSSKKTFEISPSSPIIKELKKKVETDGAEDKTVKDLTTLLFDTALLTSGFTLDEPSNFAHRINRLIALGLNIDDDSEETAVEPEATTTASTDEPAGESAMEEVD

## CCCCc1ccc(Nc2ncccc2C#N)cc1
[1]
  IC50: 17.2 µM (active)
[2]
  IC50: 33.1 µM (active)
Caspase-3 [3]
  IC50: 21.3 µM (active)

## Cc1nn(-c2ccccc2)c(Cl)c1/C=C/C(=O)c1ccc(O)cc1
[4]
  EC50: > 53 µM (inactive)
[5]
  EC50: > 150 µM (inactive)
[6]
  IC50: > 47.1 µM (inactive)
[7]
  EC50: 18.9 µM (active)
[8]
  EC50: > 180 µM (inactive)
[9]
  EC50: 1.1 µM (active)

## CN(/N=C/c1c[nH]c2ccccc12)c1cnn(-c2ccc(F)c(Cl)c2)c(=O)c1Cl
[10]
  IC50: > 99 µM (inactive)
Caspase-3 [11]
  IC50: > 99 µM (inactive)
Cells [12]
  EC50: > 350 µM (not active)
[13]
  IC50: > 99 µM (inactive)
Cells [14]
  EC50: 55.6 µM (active)
[15]
  IC50: > 99 µM (inactive)

## CCOC(=O)CSc1c(-c2cccs2)[nH]c2ccccc12
[16]
  EC50: 13.8 µM (not active)
[17]
  EC50: 53.8 µM (not active)
[18]
  EC50: 13.2 µM (inactive)
Protein Wnt-3a
  IC50: 17 µM (active)

## COC(=O)c1sccc1NC(=O)CCC1CCCCC1
[1]
  IC50: 62.8 µM (active)
[2]
  IC50: > 100 µM (inactive)
Caspase-3 [3]
  IC50: 27.9 µM (active)

## COc1cccc(-c2cnc3c(NC=O)cc(-c4ccc(O)c(OC)c4)cn23)c1
Melanocortin receptor 4
  EC50: > 89.2 µM (inactive)
H9c2
  IC50: > 79 µM (inactive)
